Measured values from patent publication US10174016B2 (BAYER AKTIENGESELLSCHAFT, priority 2014, dated 2019).
Like-named read-outs stand apart in the source and are kept apart here.

Assays:
human P2X3 receptor = human P2X3 receptor (Homo sapiens (Human), UniProt P56373); assay: Intracellular calcium measurement (FLIPR, Fluo-4) of antagonist activity at human P2X3 receptors; type: cell-based; conditions: read-out: hP2X3 IC50
How it was run: (§1)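 Antagonism quantified from peak calcium fluorescence (Fluo-4, FLIPR, 90 sec read) evoked by EC80 α,β-Me-ATP, after a 30 min, 37° C. compound pretreatment in 1% DMSO. Human P2X3- or P2X2/3-expressing cells used; triplicate means fitted for IC50, percent maximal inhibition and Hill coefficient.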

human P2X2/3 receptor = human P2X2/3 receptor (Homo sapiens (Human), UniProt P56373+Q9UBL9); assay: Intracellular calcium measurement (FLIPR, Fluo-4) of antagonist activity at human P2X2/3 receptors; type: cell-based; conditions: human P2X2/3, FLIPR calcium assay, agonist α,β-Me-ATP; read-out: hP2X2/3 IC50
Sequence of human P2X2/3 receptor (P56373 whole entry): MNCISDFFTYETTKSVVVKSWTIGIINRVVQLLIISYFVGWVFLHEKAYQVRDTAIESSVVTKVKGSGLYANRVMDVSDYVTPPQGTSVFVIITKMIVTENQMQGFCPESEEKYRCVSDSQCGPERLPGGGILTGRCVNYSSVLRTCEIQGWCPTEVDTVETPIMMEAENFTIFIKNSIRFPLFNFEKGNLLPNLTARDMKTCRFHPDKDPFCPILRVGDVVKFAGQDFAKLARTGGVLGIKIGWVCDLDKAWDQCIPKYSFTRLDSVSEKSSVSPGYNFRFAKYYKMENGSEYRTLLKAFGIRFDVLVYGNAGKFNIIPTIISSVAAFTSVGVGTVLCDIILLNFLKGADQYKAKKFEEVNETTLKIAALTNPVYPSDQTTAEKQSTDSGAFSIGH
Sequence of human P2X2/3 receptor (Q9UBL9 whole entry): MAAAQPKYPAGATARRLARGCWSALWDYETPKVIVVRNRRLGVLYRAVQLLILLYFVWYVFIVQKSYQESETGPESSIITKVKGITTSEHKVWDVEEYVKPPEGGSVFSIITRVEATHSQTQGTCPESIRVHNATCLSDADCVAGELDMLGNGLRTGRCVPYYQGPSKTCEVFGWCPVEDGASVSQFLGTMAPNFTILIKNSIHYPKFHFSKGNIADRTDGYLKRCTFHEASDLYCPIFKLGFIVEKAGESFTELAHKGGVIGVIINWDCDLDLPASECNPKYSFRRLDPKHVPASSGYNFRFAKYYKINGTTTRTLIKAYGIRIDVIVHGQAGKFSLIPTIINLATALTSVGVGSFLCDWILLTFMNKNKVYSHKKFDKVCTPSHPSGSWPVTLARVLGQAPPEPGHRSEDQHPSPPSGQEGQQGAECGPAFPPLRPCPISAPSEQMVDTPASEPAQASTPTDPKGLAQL
How it was run: as §1

[1] = human P2X3, FLIPR calcium assay, agonist α,β-Me-ATP

Sequence of human P2X3 receptor (P56373 whole entry): as the sequence (P56373 whole entry) above

Structure (SMILES)	IC50 (human P2X3 receptor; [1]) [nM]	IC50 (human P2X2/3 receptor) [nM]	IC50 (human P2X3 receptor) [nM]
CC(C)c1cnc(-c2cc(O[C@H]3CCOC3)cc(C(=O)N[C@H](C)c3cnc(C(F)(F)F)nc3)c2)s1 [Example 257, 3-[5-(propan-2-yl)-1,3-thiazol-2-yl]-5-[(3S)-tetrahydrofuran-3-yloxy]-N-{(1R)-1-[2-(trifluoromethyl)pyrimidin-5-yl]ethyl}benzamide]	47	324	
CCc1cnc(-c2cc(OC[C@@H]3CCOC3)cc(C(=O)N[C@H](C)c3cnc(C)cn3)c2)s1 [Example 259, 3-(5-ethyl-1,3-thiazol-2-yl)-N-[(1R)-1-(5-methylpyrazin-2-yl)ethyl]-5-[(3R)-tetrahydrofuran-3-ylmethoxy]benzamide]	10	102	
CCc1cnc(-c2cc(OC[C@@H]3CCOC3)cc(C(=O)N[C@H](C)c3cnc(C(F)(F)F)nc3)c2)s1 [Example 260, 3-(5-ethyl-1,3-thiazol-2-yl)-5-[(3R)-tetrahydrofuran-3-ylmethoxy]-N-{(1R)-1-[2-(trifluoromethyl)pyrimidin-5-yl]ethyl}benzamide]	2	14	
Cc1ccc([C@@H](C)NC(=O)c2cc(OC[C@@H]3CCOC3)cc(-c3ncc(C4CCC4)s3)c2)nn1 [Example 261, 3-(5-cyclobutyl-1,3-thiazol-2-yl)-N-[(1R)-1-(6-methylpyridazin-3-yl)ethyl]-5-[(3R)-tetrahydrofuran-3-ylmethoxy]benzamide]	45	317	
C[C@@H](NC(=O)c1cc(OC[C@@H]2CCOC2)cc(-c2ncc(C3CCC3)s2)c1)c1cnc(C(F)(F)F)nc1 [Example 263, 3-(5-cyclobutyl-1,3-thiazol-2-yl)-5-[(3R)-tetrahydrofuran-3-ylmethoxy]-N-{(1R)-1-[2-(trifluoromethyl)pyrimidin-5-yl]ethyl}benzamide]	33	170	
Cc1ccc([C@@H](C)NC(=O)c2cc(OC[C@@H]3CCOC3)cc(-c3ncc(C(C)C)s3)c2)nn1 [Example 264, N-[(1R)-1-(6-methylpyridazin-3-yl)ethyl]-3-[5-(propan-2-yl)-1,3-thiazol-2-yl]-5-[(3R)-tetrahydrofuran-3-ylmethoxy]benzamide]	81	530	
CC(C)c1cnc(-c2cc(OC[C@@H]3CCOC3)cc(C(=O)N[C@H](C)c3cnc(C(F)(F)F)nc3)c2)s1 [Example 266, 3-[5-(propan-2-yl)-1,3-thiazol-2-yl]-5-[(3R)-tetrahydrofuran-3-ylmethoxy]-N-{(1R)-1-[2-(trifluoromethyl)pyrimidin-5-yl]ethyl}benzamide]	41	367	
CCc1cnc(-c2cc(OC[C@H]3CCCO3)cc(C(=O)N[C@H](C)c3cnc(C)cn3)c2)s1 [Example 268, 3-(5-ethyl-1,3-thiazol-2-yl)-N-[(1R)-1-(5-methylpyrazin-2-yl)ethyl]-5-[(2R)-tetrahydrofuran-2-ylmethoxy]benzamide]		392	14
CCc1cnc(-c2cc(OC[C@H]3CCCO3)cc(C(=O)N[C@H](C)c3cnc(C(F)(F)F)nc3)c2)s1 [Example 269, 3-(5-ethyl-1,3-thiazol-2-yl)-5-[(2R)-tetrahydrofuran-2-ylmethoxy]-N-{(1R)-1-[2-(trifluoromethyl)pyrimidin-5-yl]ethyl}benzamide]	2	35	
Cc1ccc([C@@H](C)NC(=O)c2cc(OC[C@H]3CCCO3)cc(-c3ncc(C4CCC4)s3)c2)nn1 [Example 270, 3-(5-cyclobutyl-1,3-thiazol-2-yl)-N-[(1R)-1-(6-methylpyridazin-3-yl)ethyl]-5-[(2R)-tetrahydrofuran-2-ylmethoxy]benzamide]	25	100	
C[C@@H](NC(=O)c1cc(OC[C@H]2CCCO2)cc(-c2ncc(C3CCC3)s2)c1)c1cnc(C(F)(F)F)nc1 [Example 272, 3-(5-cyclobutyl-1,3-thiazol-2-yl)-5-[(2R)-tetrahydrofuran-2-ylmethoxy]-N-{(1R)-1-[2-(trifluoromethyl)pyrimidin-5-yl]ethyl}benzamide]		128	19
Cc1ccc([C@@H](C)NC(=O)c2cc(OC[C@H]3CCCO3)cc(-c3ncc(C(C)C)s3)c2)nn1 [Example 273, N-[(1R)-1-(6-methylpyridazin-3-yl)ethyl]-3-[5-(propan-2-yl)-1,3-thiazol-2-yl]-5-[(2R)-tetrahydrofuran-2-ylmethoxy]benzamide]		254	28
CC(C)c1cnc(-c2cc(OC[C@H]3CCCO3)cc(C(=O)N[C@H](C)c3cnc(C(F)(F)F)nc3)c2)s1 [Example 275, 3-[5-(propan-2-yl)-1,3-thiazol-2-yl]-5-[(2R)-tetrahydrofuran-2-ylmethoxy]-N-{(1R)-1-[2-(trifluoromethyl)pyrimidin-5-yl]ethyl}benzamide]		191	21
CCc1cnc(-c2cc(OC[C@H]3CCOC3)cc(C(=O)N[C@H](C)c3cnc(C)cn3)c2)s1 [Example 277, 3-(5-ethyl-1,3-thiazol-2-yl)-N-[(1R)-1-(5-methylpyrazin-2-yl)ethyl]-5-[(3S)-tetrahydrofuran-3-ylmethoxy]benzamide]	6	96	
CCc1cnc(-c2cc(OC[C@H]3CCOC3)cc(C(=O)N[C@H](C)c3cnc(C(F)(F)F)nc3)c2)s1 [Example 278, 3-(5-ethyl-1,3-thiazol-2-yl)-5-[(3S)-tetrahydrofuran-3-ylmethoxy]-N-{(1R)-1-[2-(trifluoromethyl)pyrimidin-5-yl]ethyl}benzamide]	2	23	
Cc1ccc([C@@H](C)NC(=O)c2cc(OC[C@H]3CCOC3)cc(-c3ncc(C(C)C)s3)c2)nn1 [Example 279, N-[(1R)-1-(6-methylpyridazin-3-yl)ethyl]-3-[5-(propan-2-yl)-1,3-thiazol-2-yl]-5-[(3S)-tetrahydrofuran-3-ylmethoxy]benzamide]	115	956	
CC(C)c1cnc(-c2cc(OC[C@H]3CCOC3)cc(C(=O)N[C@H](C)c3cnc(C(F)(F)F)nc3)c2)s1 [Example 281, 3-[5-(propan-2-yl)-1,3-thiazol-2-yl]-5-[(3S)-tetrahydrofuran-3-ylmethoxy]-N-{(1R)-1-[2-(trifluoromethyl)pyrimidin-5-yl]ethyl}benzamide]		198	26
CCc1cnc(-c2cc(OC[C@@H]3CCCO3)cc(C(=O)N[C@H](C)c3cnc(C)cn3)c2)s1 [Example 283, 3-(5-ethyl-1,3-thiazol-2-yl)-N-[(1R)-1-(5-methylpyrazin-2-yl)ethyl]-5-[(2S)-tetrahydrofuran-2-ylmethoxy]benzamide]		379	10
CCc1cnc(-c2cc(OC[C@@H]3CCCO3)cc(C(=O)N[C@H](C)c3cnc(C(F)(F)F)nc3)c2)s1 [Example 284, 3-(5-ethyl-1,3-thiazol-2-yl)-5-[(2S)-tetrahydrofuran-2-ylmethoxy]-N-{(1R)-1-[2-(trifluoromethyl)pyrimidin-5-yl]ethyl}benzamide]	4	57	
Cc1ccc([C@@H](C)NC(=O)c2cc(OC[C@@H]3CCCO3)cc(-c3ncc(C4CCC4)s3)c2)nn1 [Example 285, 3-(5-cyclobutyl-1,3-thiazol-2-yl)-N-[(1R)-1-(6-methylpyridazin-3-yl)ethyl]-5-[(2S)-tetrahydrofuran-2-ylmethoxy]benzamide]	113	760	
C[C@@H](NC(=O)c1cc(OC[C@@H]2CCCO2)cc(-c2ncc(C3CCC3)s2)c1)c1cnc(C(F)(F)F)nc1 [Example 287, 3-(5-cyclobutyl-1,3-thiazol-2-yl)-5-[(2S)-tetrahydrofuran-2-ylmethoxy]-N-{(1R)-1-[2-(trifluoromethyl)pyrimidin-5-yl]ethyl}benzamide]	35	275	
Cc1ccc([C@@H](C)NC(=O)c2cc(OC[C@@H]3CCCO3)cc(-c3ncc(C(C)C)s3)c2)nn1 [Example 288, N-[(1R)-1-(6-methylpyridazin-3-yl)ethyl]-3-[5-(propan-2-yl)-1,3-thiazol-2-yl]-5-[(2S)-tetrahydrofuran-2-ylmethoxy]benzamide]	150	1310	
CC(C)c1cnc(-c2cc(OC[C@@H]3CCCO3)cc(C(=O)N[C@H](C)c3cnc(C(F)(F)F)nc3)c2)s1 [Example 290, 3-[5-(propan-2-yl)-1,3-thiazol-2-yl]-5-[(2S)-tetrahydrofuran-2-ylmethoxy]-N-{(1R)-1-[2-(trifluoromethyl)pyrimidin-5-yl]ethyl}benzamide]		368	31
CC(C)c1cnc(-c2cc(OC[C@@H]3CCOC3)cc(C(=O)N[C@H](C)c3ccc(C(F)(F)F)nn3)c2)s1 [Example 293, 3-[5-(propan-2-yl)-1,3-thiazol-2-yl]-5-[(3R)-tetrahydrofuran-3-ylmethoxy]-N-{(1R)-1-[6-(trifluoromethyl)pyridazin-3-yl]ethyl}benzamide]	63	1160	
CC(C)c1cnc(-c2cc(O[C@@H]3CCOC3)cc(C(=O)N[C@H](C)c3ccc(C(F)(F)F)nn3)c2)s1 [Example 294, 3-[5-(propan-2-yl)-1,3-thiazol-2-yl]-5-[(3R)-tetrahydrofuran-3-yloxy]-N-{(1R)-1-[6-(trifluoromethyl)pyridazin-3-yl]ethyl}benzamide]	101	1060	
C[C@@H](NC(=O)c1cc(OC[C@@H]2CCOC2)cc(-c2ncc(C3CCC3)s2)c1)c1ccc(C(F)(F)F)nn1 [Example 297, 3-(5-cyclobutyl-1,3-thiazol-2-yl)-5-[(3R)-tetrahydrofuran-3-ylmethoxy]-N-{(1R)-1-[6-(trifluoromethyl)pyridazin-3-yl]ethyl}benzamide]	56	933	
